In patent US5854388A, “Angiotensin IV peptides and receptor” (Washington State University Research Foundation, priority 1994, dated 1998):

Assay: Stability of angiotensin peptides in binding buffer (reverse phase HPLC)
Format: physicochemical
Details: 4 h at 37° C.
Procedure: Binding studies were carried out in a buffer (below) containing an extensive cocktail of inhibitors that was designed to minimize metabolism of both the receptor and the test ligand, i.e., the buffer contained 5 mM EDTA, 0.2% BSA, […] Bestatin, 50 μM Plummer's inhibitor, and 100 μM PMSF.

SMILES: CC[C@H](C)[C@H](NC(=O)[C@H](Cc1ccc(O)cc1)NC(=O)[C@@H](N)C(C)C)C(=O)N[C@@H](Cc1cnc[nH]1)C(=O)N1CCC[C@H]1C(=O)N[C@@H](Cc1ccccc1)C(=O)O [AIV, Val1 Tyr2 Ile3 His4 Pro5 Phe6]
- hydrolysis in binding buffer: less than 10%
